Results reported in patent US20140296316A1, “HYDRATE AND CRYSTAL OF FLUORENE COMPOUNDS” (JAPAN TOBACCO INC., priority 2013, published 2014).

What was measured:
[1] = Water adsorption and desorption test; type: physicochemical; settings: for hygroscopicity: conclusion of the water adsorption and desorption test; for hygroscopicity / moisture absorption under relative humidity 95%: without pre-drying
Method: Water adsorption and desorption test was performed using a water equilibrium measuring apparatus (SGA-100, manufactured by VTI).
A water adsorption and desorption test was performed by the following method.
Method 1 (without Pre-Drying):
Form I crystal (about 10 mg) was weighed in a quartz cell, and a weight change ratio was measured when it reached equilibrium at 25° C. and each relative humidity, by using a water equilibrium measuring apparatus (SGA-100, manufactured by VTI).
Test temperature: 25° C. Equilibrating conditions: weight change ratio was not more than 0.03% in 5 min Maximum equilibrating time: 180 min Change of relative humidity: increased from 5% to 95% at 5% intervals, and decreased from 95% to 5% at 5% intervals. Method 2 (with Pre-Drying):
Form I crystal (about 10 mg) was weighed in a quartz cell, dried under a dried nitrogen stream at 60° C., and a weight change ratio was measured when it reached equilibrium at 25° C. and each relative humidity, by using a water equilibrium measuring apparatus (SGA-100, manufactured by VTI).
Test temperature: 25° C. Equilibrating conditions: weight change ratio was not more than 0.03% in 5 min Maximum equilibrating time: 180 min Change of relative humidity: increased from 5% to 95% at 5% intervals, and decreased from 95% to 5% at 5% intervals.
In the water adsorption and desorption test, the measurement was performed under two conditions of “with pre-drying (drying before test)” and “without pre-drying (drying before test)”, wherein humidification and drying were repeated once. […] Therefore, it was assumed that pre-drying completely evaporated crystal water.

[2] = Water adsorption and desorption test; type: physicochemical; settings: for weight decrease on pre-drying: pre-dried under a dried nitrogen stream, 60° C.; for weight increase by humidification after drying: with pre-drying, humidification up to relative humidity 10%, 25° C.
human PDHK2 (hPDHK2) = target: T1, human PDHK2 (hPDHK2) (Homo sapiens, UniProt Q15119); assay: Inhibitory action of PDHK2 activity in vitro (residual PDH activity after kinase reaction); type: biochemical; settings: PDH/hPDHK2 complex, PDHK reaction 45 min at room temperature
T1 construct: made in house; host or cells: Escherichia coli BL21(DE3), pET17b vector
Method: (§1) The inhibitory action of PDHK activity was assessed indirectly by measuring the residual PDH activity after kinase reaction in the presence of a test compound.
The recombinant construct was transformed into Escherichia coli (DB5α-TOYOBO). The recombinant clones were identified, and plasmid DNA was isolated and subjected to the DNA sequence analysis. One clone which had the expected nucleic acid sequence was selected for expression work.
For expression of hPDHK2 activity, Escherichia coli strain BL21(DE3) cells (Novagen) were transformed with the pET17b vector containing modified hPDHK2 cDNA. The Escherichia coli were grown to an optical density 0.6 ([…]) at 30° C. Protein expression was induced by the addition of 500 μmol/L isopropyl-β-thiogalactopyranoside. […]
0.05 U/mL PDH and 0.8 μg/mL hPDHK2 were mixed in a buffer (50 mmol/L 3-morpholinopropanesulfonic acid (pH 7.0), 20 mmol/L dipotassium hydrogen phosphate, 60 mmol/L potassium chloride, 2 mmol/L magnesium chloride, 0.4 mmol/L EDTA, and 0.2% Pluronic F-68, 2 mmol/L dithiothreitol), and the mixture was incubated at 4° C. overnight to obtain a PDH/hPDHK2 complex. […] The mixture was incubated at room temperature for 90 min, and the residual PDH activity was measured. The absorbance at 340 nm before and after PDH reaction was measured using a microplate reader to detect NADH produced by the PDH reaction. […]

human PDHK1 (hPDHK1) = target: T2, human PDHK1 (hPDHK1) (Homo sapiens, UniProt Q15118); assay: Inhibitory action of PDHK1 activity in vitro (residual PDH activity after kinase reaction); type: biochemical; settings: PDH/hPDHK1 complex, PDHK reaction 45 min at room temperature
T2 construct: made in house; host or cells: Escherichia coli BL21(DE3), pET17b vector
T2 sequence (Q15118 29-436): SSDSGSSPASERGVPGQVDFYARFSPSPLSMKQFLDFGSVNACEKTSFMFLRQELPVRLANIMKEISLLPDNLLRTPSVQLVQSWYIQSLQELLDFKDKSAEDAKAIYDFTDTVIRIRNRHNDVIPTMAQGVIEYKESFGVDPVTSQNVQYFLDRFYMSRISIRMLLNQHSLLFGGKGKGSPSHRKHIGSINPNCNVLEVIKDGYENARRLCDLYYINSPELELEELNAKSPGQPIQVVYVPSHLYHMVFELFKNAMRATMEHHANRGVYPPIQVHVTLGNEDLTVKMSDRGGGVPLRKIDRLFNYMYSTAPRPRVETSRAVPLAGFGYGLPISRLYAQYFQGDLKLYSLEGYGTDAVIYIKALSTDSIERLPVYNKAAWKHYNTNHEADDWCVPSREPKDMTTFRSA
Method: as §1
In the case of human PDHK1 (hPDHK1, Genbank Accession No. L42450.1), a 1.3 kbp fragment encoding this protein was isolated from human liver cDNA by polymerase chain reaction (PCR). Modified hPDHK1 cDNA wherein FLAG-Tag sequence was added to the N terminus was prepared by PCR and cloned into a vector (pET17b-Novagen). The recombinant construct was transformed into Escherichia coli (DH5α-TOYOB0). The recombinant clones were identified, and plasmid DNA was isolated and subjected to the DNA sequence analysis. One clone which had the expected nucleic acid sequence was selected for expression work. […]
Then, 10 μL of substrates (5 mmol/L sodium pyruvate, 5 mmol/L Coenzyme A, 12 mmol/L NAD, 5 mmol/L thiamin pyrophosphate, diluted with buffer) were added. The mixture was incubated at room temperature for 90 min, and the residual PDH activity was measured.
The absorbance at 340 nm before and after PDH reaction was measured using a microplate reader to detect NADH produced by the PDH reaction. The hPDHK1 inhibition rate (%) of the test compound was calculated from the formula [{(PDH activity of the test compound−PDH activity of control)/PDH activity of blank−PDH activity of control)}×100]. […]

SMILES	hygroscopicity [1]	moisture absorption under relative humidity 95% ([1]; 25° C.)	weight decrease on pre-drying [2] [%]	weight increase by humidification after drying [2] [%]	IC50 (human PDHK2 (hPDHK2)) [nM]	IC50 (human PDHK1 (hPDHK1)) [nM]	weight decrease on pre-drying ([1]; pre-dried under a dried nitrogen stream, 60° C.) [%]	weight increase by humidification after drying ([1]; with pre-drying, humidification up to relative humidity 50%, 25° C.) [%]
CC(CO)(CO)n1cc(-c2cc(F)cc3c2-c2ccccc2[C@]3(O)C(F)(F)F)cn1 [Form V crystal of compound (Ah), 0.5 hydrate of 2-{4-[(9R)-2-fluoro-9-hydroxy-9-(trifluoromethyl)-9H-fluoren-4-yl]-pyrazol-1-yl}-2-methyl-propane-1,3-diol]	does not have hygroscopicity	remarkable moisture absorption was not found	2.36	2.46				
CC(CO)(CO)n1cc(-c2cc(F)cc3c2-c2ccccc2[C@]3(O)C(F)(F)F)cn1 [Form I crystal of compound (Ah), 0.5 hydrate of 2-{4-[(9R)-2-fluoro-9-hydroxy-9-(trifluoromethyl)-9H-fluoren-4-yl]-pyrazol-1-yl}-2-methyl-propane-1,3-diol]	does not have hygroscopicity	remarkable moisture absorption was not found	2.15	2.44	14	26		
Cc1cc(-c2cnn(C(CO)(CO)CO)c2)c2c(c1)[C@@](O)(C(F)(F)F)c1ccccc1-2 [Form IVb crystal of compound (Bh), 2 hydrate of 2-hydroxymethyl-2-{4-[(9R)-9-hydroxy-2-methyl-9-(trifluoromethyl)-9H-fluoren-4-yl]-pyrazol-1-yl}-propane-1,3-diol]	does not have hygroscopicity	remarkable moisture absorption was not found			20		7.75	7.93
